The source of these data is patent US7902354B2, “Lapachone compounds and methods of use thereof” (ArQule, Inc., priority 2006, dated 2011).

The subject of series [1] is A549 human lung carcinoma cells. Put plainly: MTS cell viability assay, A549 human lung carcinoma cells. It counts as cell-based. The conditions noted are these: A549, 4 h compound incubation, MTS, read-out: IC50 Values, Cancerous Cells, Lung A549.
Series [2] has as its system DLD-1 human colon carcinoma cells. Put plainly: MTS cell viability assay, DLD-1 human colon carcinoma cells. The series is classed as cell-based. The conditions noted are these: DLD-1, 4 h compound incubation, MTS, read-out: IC50 Values, Cancerous Cells, Colon DLD-1. (Formazan colour is commonly taken as a measure of viable cells.)
Series [3] has as its system DU-145 human prostate carcinoma cells. Put plainly: MTS cell viability assay, DU-145 human prostate carcinoma cells. It counts as cell-based. The settings on record: DU-145, 4 h compound incubation, MTS, read-out: IC50 Values, Cancerous Cells, Prostate DU-145.
In series [4] the test system is K-562 human leukemia cells. The series is described as follows: MTS cell viability assay, K-562 human leukemia cells. The settings on record: K562, K-562, 4 h compound incubation, MTS, read-out: IC50 Values, Cancerous Cells, Leukemia K-562. The series is classed as cell-based.
Series [5] deals with HT-29 human colon carcinoma cells. The series is described as follows: MTS cell viability assay, HT-29 human colon carcinoma cells. The settings on record: 4 h compound incubation, read-out: IC50 Values, Cancerous Cells, Colon HT-29. The series is classed as cell-based.
For series [6], the system named is PACA-2 human pancreatic carcinoma cells. The series is described as follows: MTS cell viability assay, PACA-2 human pancreatic carcinoma cells. The settings on record: PACA-2, 4 h compound incubation, MTS, read-out: IC50 Values, Cancerous Cells, Pancreas PACA-2. The series is classed as cell-based.
Series [7] concerns NCM-460 normal colon epithelial cells. Put plainly: MTS cell viability assay, NCM-460 normal colon epithelial cells. It counts as cell-based. The settings on record: for IC50: Homo sapiens, NCM460, NCM-460, 4 h compound incubation, MTS, read-out: IC50 Values, Normal Cells, Colon NCM-460; for Fold Selectivity (NCM-460/DLD1): ratio of IC50 NCM-460 / DLD1.
The next series concerns E2F-1. The series is described as follows: E2F-1 induction in HT-29 cells. The series is classed as cell-based, human. From the text: Another effect of the compounds of the present invention is the induction or elevation of activity (e.g. elevation of the level) of one or more checkpoint molecules (i.e., a member of the E2F family of transcription factors). Studies have shown that β-lapachone induces activation of E2F1 checkpoint pathway in nuclei of cancer cells but not in normal cells, resulting in the arrest of cancer cells in G1 and/or S phase. Several compounds of the present invention were effective in activating the E2F1 checkpoint pathway (e.g. elevation of E2F1 levels), thus causing G1 and/or S phase arrest. Furthermore, the compounds of the present invention have no significant toxic effects on normal cells (See. Table 1). The assays of the present invention as shown in Table 1 and methods of measuring induction of E2F1 activity and elevation of E2F1 levels can be carried out following the descriptions found in Li et al., (2003) Proc Natl Acad Sci USA. 100(5): 2674-8 and U.S. Patent Application Publication No. 2002/0169135, both incorporated herein by reference.

The test system of series [8] is HT29 human colon cancer xenograft. Put plainly: Colon cancer xenograft model (HT29) in athymic nude mice. It counts as in vivo. On the procedure:
Tumors were allowed to grow to approximately 70 mm^3 in size. Animals were randomized into two groups of eight animals per group. […] Drug or vehicle was administered every Monday, Wednesday and Friday for a total of nine doses (qMWFx3). Tumor size was evaluated periodically during the study. For each subject, tumor volume was calculated using the formula (L×W^2)/2 where L and W were the length and width of the tumor, respectively. The arithmetic mean tumor volume was calculated for each treatment group +/− standard error of the mean (SEM). […] Tumors were allowed to grow to approximately 90 mm^3 in size. Animals were randomized into three groups of eight animals per group. […] Drug or vehicle was administered every Monday, Wednesday and Friday for a total of nine doses (qMWFx3). Tumor size was evaluated periodically during the study. For each subject, tumor volume was calculated using the formula (L×W^2)/2 where L and W were the length and width of the tumor, respectively. The arithmetic mean tumor volume was calculated for each treatment group +/− standard error of the mean (SEM). […] Tumors were allowed to grow to approximately 60 mm^3 in size. Animals were randomized into two groups of eight animals per group. At day five post injection, mice with established tumors were treated intraperitoneally with either Compound 182 (40 mg/kg) or vehicle control. Drug or vehicle was administered every Monday, Wednesday and Friday for a total of nine doses (qMWFx3). Tumor size was evaluated periodically during the study. For each subject, tumor volume was calculated using the formula (L×W^2)/2 where L and W were the length and width of the tumor, respectively. The arithmetic mean tumor volume was calculated for each treatment group +/− standard error of the mean (SEM). […] Tumors were allowed to grow to approximately 50 mm^3 in size. Animals were randomized into three groups of five animals per group. At day eight post injection, mice with established tumors were treated intraperitoneally with either Compound 180 (40 mg/kg) or Compound 125 (40 mg/kg) and vehicle control. Drug or vehicle was administered every Monday, Wednesday and Friday for a total of twelve doses (qMWFx4). Tumor size was evaluated periodically during the study. For each subject, tumor volume was calculated using the formula (L×W^2)/2 where L and W were the length and width of the tumor, respectively. The arithmetic mean tumor volume was calculated for each treatment group +/−standard error of the mean (SEM).

The subject of another series is human cancer cell lines. The settings on record: single agent; read-out: antineoplastic activity against human cancer cell lines (IC50); cited from earlier work.
Series [9] deals with normal fresh or proliferating human PBMC. The settings on record: cited from earlier work.
Setting [10] is: 40 mg/kg intraperitoneally qMWFx4, HT29 xenograft.
Where [11] appears, read: 40 mg/kg intraperitoneally qMWFx3, HT29 xenograft.
[12] abbreviates: 32 mg/kg intraperitoneally qMWFx3, HT29 xenograft.
Where [13] appears, read: 48 mg/kg intraperitoneally qMWFx3, HT29 xenograft.

Usually IC50 stands for the midpoint of a concentration-inhibition curve. With `O=C1C(=O)c2ccccc2C2=C1SCC1(CCN(Cc3ccc(F)cc3)CC1)O2` [Compound 125, 1′-(4-fluorobenzyl)spiro[naphtho[1,2-b][1,4]oxathiine-2,4′-piperidine]-5,6-dione], the IC50 in series [1] turned out to be 9.57 µM; in series [2], 1.71 µM; in [3], 5.06 µM; in [4], 3.74 µM; in series [5], 4.95 µM; in series [6], 2.5 µM. Besides, the IC50 in series [7] is 9.75 µM. The “Fold Selectivity (NCM-460/DLD1)” value in series [7] came to 5.7. Further, the “E2F-1 Induction (HT-29)” value with E2F-1 was “Yes”. In addition, the “% T/C” value in series [8] (setting [10]) is on record as 46.2%. Besides, the “reduction of mean tumor volume compared to vehicle treated control” value (from here on “reduction of mean tumor volume”) in series [8] (setting [10]) was 57.8%.

With `O=C1C(=O)c2ccccc2C2=C1SCC1(CCN(C[C@H](O)COc3ccc(F)cc3)CC1)O2` [Compound 180, 1′-[(2S)-3-(4-fluorophenoxy)-2-hydroxypropyl]spiro[naphtho[1,2-b][1,4]oxathiine-2,4′-piperidine]-5,6-dione], the IC50 amounted to 3.53 µM in series [1]; 0.708 µM in [2]; 1.48 µM in series [3]; 1.46 µM in [4]; 2.2 µM in [5]; 0.958 µM in series [6]. Also, the IC50 in [7] is 3.57 µM. Moreover, in series [7], the “Fold Selectivity (NCM-460/DLD1)” value is reported as 5.0. In the series on E2F-1, the “E2F-1 Induction (HT-29)” value was “Yes”. Also, the “% T/C” value in series [8] (setting [10]) was 58.3%. Further, the “reduction of mean tumor volume” value in series [8] (setting [10]) stood at 41.7%.

Turning to `O=C1C(=O)c2ccccc2C2=C1SCC1(CCN(C[C@H](O)COc3ccc(Cl)cc3)CC1)O2` [Compound 182, 1′-[(2S)-3-(4-chlorophenoxy)-2-hydroxypropyl]spiro[naphtho[1,2-b][1,4]oxathiine-2,4′-piperidine]-5,6-dione], the IC50 in series [1] was 6.45 µM; in series [2], 1.3 µM; in series [3] it was 1.28 µM; in series [4], 3.25 µM; in series [5], 2.07 µM; in series [6] it was 1.33 µM. In addition, the IC50 in series [7] amounted to 11.2 µM. Besides, in series [7], the “Fold Selectivity (NCM-460/DLD1)” value was 8.6. In addition, in the series with E2F-1, the “E2F-1 Induction (HT-29)” value is reported as “Yes”. Also, in series [8] (setting [11]), the “% T/C” value was 44.8%. Also, in [8] (setting [11]), the “reduction of mean tumor volume” value is reported as 55.2%.

Turning to `CC(C)(C)c1ccc(OC[C@@H](O)CN2CCC3(CC2)CSC2=C(O3)c3ccccc3C(=O)C2=O)cc1` [Compound 184, 1′-[(2S)-3-(4-tert-butylphenoxy)-2-hydroxypropyl]spiro[naphtho[1,2-b][1,4]oxathiine-2,4′-piperidine]-5,6-dione], the IC50 in series [1] turned out to be 5.85 µM; in [2] it was 2.58 µM; in series [3], 1.65 µM; in [4], 5.34 µM; in series [5] it was 3.67 µM; in [6], 1.71 µM. Further, in [7], the IC50 turned out to be 27.8 µM. Moreover, the “Fold Selectivity (NCM-460/DLD1)” value in series [7] was 10.8. Moreover, the “E2F-1 Induction (HT-29)” value in the series with E2F-1 is reported as “Yes”. Also, the “% T/C” value in series [8] (setting [12]) is 29.8%. Also, in series [8] (setting [12]), the “reduction of mean tumor volume” value came out at 70.2%.

Regarding `O=C1C(=O)c2ccccc2C2=C1SCC1(CCN(C[C@H](O)Cc3ccccc3)CC1)O2` [Compound 186, 1′-[(2R)-2-hydroxy-3-phenylpropyl]spiro[naphtho[1,2-b][1,4]oxathiine-2,4′-piperidine]-5,6-dione], the IC50 is 5.5 µM in series [1]; 1.5 µM in [2]; 2.1 µM in series [3]; 2.3 µM in series [4]; 6.5 µM in series [5]; 1.5 µM in series [6]. In series [7], the IC50 turned out to be 6.8 µM. Besides, the “Fold Selectivity (NCM-460/DLD1)” value in [7] is 4.7. Moreover, the “E2F-1 Induction (HT-29)” value in the series with E2F-1 is recorded as “YES”. Moreover, the “% T/C” value in series [8] (setting [12]) is reported as 50%. In series [8] (setting [12]), the “reduction of mean tumor volume” value worked out at 50%.

For `O=C1C(=O)c2ccccc2C2=C1SCC1(CCN(C[C@@H](O)Cc3ccccc3)CC1)O2` [Compound 187, 1′-[(2S)-2-hydroxy-3-phenylpropyl]spiro[naphtho[1,2-b][1,4]oxathiine-2,4′-piperidine]-5,6-dione], the IC50 in series [1] was found to be 5.1 µM; in [2], 2.1 µM; in series [3], 3 µM; in [4], 2.7 µM; in series [5] it was 5.5 µM; in series [6] it was 1.9 µM. Moreover, in series [7], the IC50 was determined as 8.1 µM. The “E2F-1 Induction (HT-29)” value in the series with E2F-1 is given as “YES”. Besides, the “Opt. % T/C” value in series [8] (setting [13]) was found to be 38%. Also, the “reduction of mean tumor volume” value in [8] (setting [13]) amounted to 62%.

With `CC1(C)CCC2=C(O1)c1ccccc1C(=O)C2=O` [β-lapachone, 3,4-dihydro-2,2-dimethyl-2H-naphtho[1,2-b]pyran-5,6-dione], the IC50 in the series on human cancer cell lines is 1 to 10 µM. Further, in series [9], the “cytotoxic effects on normal fresh or proliferating human PBMC” value is listed as “No cytotoxic effects”.
